From patent publication US20230320995A1, “IONIZABLE CATIONIC LIPIDS AND LIPID NANOPARTICLES” (CAPSTAN THERAPEUTICS, INC., priority 2022, published 2023) come the findings set out here.

The nature of series [1]: ex vivo stability in mouse plasma. In kind it is in vitro ADME. The settings on record: 37° C.; for ex vivo Mouse Plasm Stability % Remaining at 2 Hours: CD-1 mouse plasma, 1 μM lipid. How it is done: To determine the stability of the disclosed lipids in mouse plasma lipid stock solution was prepared by dissolution of the lipid in isopropanol at the concentration of 5 mg/mL. A requisite volume of the lipid-isopropanol solution was then diluted to 100 μM concentration at a total volume of 10.0 mL with 50:50 (v/v) ethanol/water. Ten microliters of this 100 μM solution was spiked into 10.0 mL of mouse plasma (BioIVT, Lot MSE394920, CD-1 mouse, anticoagulant: sodium heparin, not filtered) that was prewarmed to 37° C. and stirred at 50 rpm with a magnetic stir bar. The starting concentration of lipids in plasma was thus 1 μM. Aliquots (50 μL) were taken after 0, 15, 30, 45, 60, and 120 minutes, transferred to microcentrifuge tubes and quenched with three volumes (150 μL) of ice cold acetonitrile/methanol (4:1). Positive control incubations utilized the same plasma, with Benfluorex (1 μM) as the substrate with Labetalol (1.0 μgl) as the in situ disappearance. The quenched solutions were vortexed, centrifuged for 5 minutes at 13,000 rpm, and supernatant (100 μL) transferred to a 96-well plate and diluted with water (200 μL, 0.1% FA). After filtration through a 0.45 μm 96-well filtering plate, the filtrates were analyzed by LC-MS (Waters AQUITY I-class UPLC system, ThermoScientific Vanquish UPLC system consisting of a binary pump, autosampler, and column compartment, Waters Xevo G2-XS QT of mass spectrometer; Phenomenex F5, 1.7 μm, 2.1×50 mm column). Mobile phase A was 0.1% formic acid in water, and mobile phase B was 0.1% formic acid in acetonitrile. The flow rate was 0.6 mL/min. Elution gradient was as follows: time, 0.5 min: 20% B; 0.5-2 min: 20-100% B; 2-4.8 min: 100% B; 4.8-5.45 min: 100-20% B. Mass spectrometry was in positive scanning mode from 600-1100 m/z. The peak of the molecular ion of the lipids was integrated in extracted ion chromatography (XIC) using Xcalibur software (Thermo Fisher). The relative peak area compared to T=0, after normalization by the peak area of the internal standard, was used as the percentage of the lipid remaining at each time point. T1/2 values were calculated using the first-order decay model.

A further series relates to HEK293F cells. Nature of the series: transfection of HEK293F cells with mCherry mRNA LNP. Type of series: cell-based. The settings on record: highest dose tested (2 μg RNA per well), 24 hours.
For a further series, the system named is mouse splenic T cells. Nature of the series: targeted transfection of T cells in vivo with CD5-targeted tLNP. The settings on record: C57Bl/6 mice, 10 μg via tail vein, spleen at 24 hours. The procedure:
To assess the performance of tLNP described in Example 35 they were used to transfect mouse T cells by injecting the tLNP into live mice and evaluated for their ability to generate murine T cells that express the mCherry reporter gene in vivo. All tLNP test articles were thawed at room temperature for 30 minutes and then diluted 1:2 with sterile water for injection to achieve a final dose concentration of 100 μg/mL. 100 μL (10 μg) of each test article was then injected via the tail vein into 8-week-old female C57Bl/6 mice. All treated mice were then sacrificed at 24 hours post-treatment and their spleens collected. Each spleen was then dissociated to single cell suspension and stained with antibodies to identify T cells, B cells, monocytes and non-hematopoietic cells. Stained samples were then analyzed by flow cytometry for expression of mCherry in immune cell subsets, and non-hematopoietic cells. Data analysis was performed using FlowJo (Version 10.8.1) and GraphPad Prism (9.4.1.).

Method for HEK293F cells: The ability of the LNP formed in the preceding Example to transfect HEK293F cells, a human embryonic kidney cell-derived cell line, with the mCherry mRNA was assessed. Viral Production Cells (Gibco Catalog number: A35347), a derivative of the HEK 293F cell line adapted to a chemically-defined, serum-free and protein-free medium (LV-MAX™ Production Medium; Gibco Catalog number: A3583401) were grown in suspension, sedimented, resuspended at about 1×10^6 cells/mL, and 200 μL distributed to the wells of a 96-well U-bottom plate. Frozen LNP were thawed and diluted to 100 μg mRNA/mL with sterile water for injection. An appropriate volume of LNP was added to provide 0, 0.3, 0.6, or 2 μg RNA per well in duplicate and mixed by re-pipetting. The cells were then incubated for 1 hour at 37° C. in a CO2 incubator, washed three times with phosphate buffered saline, resuspended in 400 μL of medium in a deep-well 96-well plate, and incubated at 37° C. in a CO2 incubator on an orbital shaker at 900 RPM.
Twenty-four hours after addition of the LNP to the cells they were stained with Aqua Live/Dead (Thermo: catalog L34965) to assess cell viability. Transfection rate and expression level in the transfected cells was assessed by flow cytometry based on mCherry fluorescence.

On to `CCCCCCCCCC(=O)OCC(COC(=O)CCCCCCCCC)CC(=O)OCCN(CCOC(=O)CC(COC(=O)CCCCCCCCC)COC(=O)CCCCCCCCC)C(=O)NCCCN(C)C` [Compound A-2], for which the “ex vivo Mouse Plasm Stability % Remaining at 2 Hours” value in series [1] stood at 72%.

For `CCCCCCCCC(=O)OCC(COC(=O)CCCCCCCC)CC(=O)OCCN(CCOC(=O)CC(COC(=O)CCCCCCCC)COC(=O)CCCCCCCC)C(=O)OCCN(C)C` [Compound A-11], the half-life at 1 μM in series [1] (CD-1, mouse plasma) is under 10 h. Also, the “ex vivo Mouse Plasm Stability % Remaining at 2 Hours” value in series [1] was 86%. This molecule also returned a transfection rate in the series on HEK293F cells of about 50%. In addition, in the series with mouse splenic T cells, the “level of mCherry expression (MFI) in vivo” value is listed as “distinctly greater than that achieved with the other tLNP” and the “transfection rate of splenic T cells in vivo” value was “around 7%”.

The half-life is how long it takes for the measured level to halve.
